Molecular target: T1, Drosophila SARM1 TIR domain (Drosophila melanogaster, UniProt Q6IDD9)
T1 construct: gene Sarm; TIR domain only; N-terminal 6xHis tag kept; codon optimized; E. coli BL21(DE3)
T1 sequence (Q6IDD9 837-981 limits assumed): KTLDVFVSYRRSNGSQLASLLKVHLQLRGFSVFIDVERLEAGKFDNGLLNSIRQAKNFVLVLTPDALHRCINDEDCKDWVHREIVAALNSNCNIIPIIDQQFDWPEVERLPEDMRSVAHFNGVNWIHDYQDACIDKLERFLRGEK
Test: LC-MS/MS of NAD+ and products
Type: biochemical
Settings: […] protein; […] NAD+; […] HEPES-KOH pH […]; […] NaCl; […] TCEP; […] C; […] h; main product cADPR

NC(=O)c1ccc[n+]([C@@H]2O[C@H](COP(=O)(O)OP(=O)(O)OC[C@H]3O[C@@H](n4cnc5c(N)ncnc54)[C@H](O)[C@@H]3O)[C@@H](O)[C@H]2O)c1 [NAD^+]
LC-MS/MS of NAD+ and products: SARM1 TIR domains consumed NAD^+ efficiently

From PMC11025887, “The SARM1 TIR domain produces glycocyclic ADPR molecules as minor products” (PLOS ONE, 2024)
